Measurements as given in US20090131313A1, “LKKTET AND/OR LKKTNT PEPTIDE COMPOSITIONS AND METHODS FOR TREATING OR PREVENTING TISSUE DETERIORATION, INJURY OR DAMAGE” (REGENERX BIOPHARMACEUTICALS, INC., priority 2005, published 2009).

Assays:
[1] = system: Human corneal epithelial cells; test: annexin-based cell death (apoptosis) assay
Procedure: (§1) Human corneal epithelial cells at approximately 80% confluence were treated with 0%, 0.001%, 0.01%, or 0.1% BAK for 15 minutes. After 3 and 24 hours of recovery in culture medium, cell proliferation was measured using a calorimetric BrdU incorporation assay. Apoptosis was measured using a calorimetric annexin-based cell death assay. […] To further assess the ability of Tb4 to prevent apoptosis, corneal epithelial cells were treated with 0.01% BAK±Tβ4 over a 5 day time course.

[2] = system: Human corneal epithelial cells; test: BrdU incorporation cell proliferation assay; type: cell-based; conditions: 1 mcg/ml Tβ4, 3 and 24 hour time points
Procedure: as §1

Substance	apoptosis of BAK-treated cells in the presence of Tβ4 ([1]; 1 mcg/ml Tβ4, BAK-treated cells, 3 and 24 hour time points)	apoptosis compared to cells cultured in medium alone ([1]; Tβ4-treated cells, 5 days in culture)	cell proliferation of BAK-treated cells in the presence of Tβ4 [2]	corneal epithelial cell apoptosis compared to control ([1]; 0.001%, 0.01% or 0.1% BAK for 15 minutes, 3 and 24 hours recovery)
Thymosin beta 4 (SDKPDMAEIEKFDKSKLKKTETQEKNPLPSKETIEQEKQAGES; Thymosin beta-4; UniProt P62328 2-44, looked up) [Tβ4]	not inhibited	decreased apoptosis	not promoted	–
benzalkonium chloride [BAK, reference compound]	–	–	–	increased
